Assay results taken from publication PMC12546632, “The role of cytochrome bc1 inhibitors in future tuberculosis treatment regimens” (Nature Communications, 2025).
Values after ≈ are worked out from the molar mass of the structure shown. Values joined by “and” are separate entries in the source; they are usually repeats but may differ in a detail not shown here. Equal entries are not always repeated. Where two headings read alike, the source gives them in different places.

Tests used:
[1] = system: M. tuberculosis ΔcydAB (Parent); assay: microbe, parasite or virus in culture; format: cell-based
1A2 = molecular target: T1, 1A2 (Homo sapiens, UniProt P05177); format: in vitro ADME
T1 construct: from tissue; host or cells: human liver microsomes
T1 sequence (P05177 whole entry): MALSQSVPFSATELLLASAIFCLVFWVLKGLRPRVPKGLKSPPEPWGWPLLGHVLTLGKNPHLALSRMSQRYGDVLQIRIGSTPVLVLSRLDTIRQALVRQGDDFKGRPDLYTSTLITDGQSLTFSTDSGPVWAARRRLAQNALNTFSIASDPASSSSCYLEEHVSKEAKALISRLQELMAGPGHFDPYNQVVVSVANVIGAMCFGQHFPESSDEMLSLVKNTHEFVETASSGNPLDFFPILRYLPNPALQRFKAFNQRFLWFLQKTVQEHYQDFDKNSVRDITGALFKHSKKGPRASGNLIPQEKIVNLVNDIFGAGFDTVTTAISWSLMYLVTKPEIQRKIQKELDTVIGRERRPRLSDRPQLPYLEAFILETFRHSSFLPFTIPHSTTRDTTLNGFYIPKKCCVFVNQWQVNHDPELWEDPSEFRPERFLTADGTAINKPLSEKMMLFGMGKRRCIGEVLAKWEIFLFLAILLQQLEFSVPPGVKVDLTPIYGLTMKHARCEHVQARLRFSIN

2C8 = molecular target: T2, 2C8 (Homo sapiens, UniProt P10632); format: in vitro ADME
T2 construct: from tissue; host or cells: human liver microsomes
T2 sequence (P10632 whole entry): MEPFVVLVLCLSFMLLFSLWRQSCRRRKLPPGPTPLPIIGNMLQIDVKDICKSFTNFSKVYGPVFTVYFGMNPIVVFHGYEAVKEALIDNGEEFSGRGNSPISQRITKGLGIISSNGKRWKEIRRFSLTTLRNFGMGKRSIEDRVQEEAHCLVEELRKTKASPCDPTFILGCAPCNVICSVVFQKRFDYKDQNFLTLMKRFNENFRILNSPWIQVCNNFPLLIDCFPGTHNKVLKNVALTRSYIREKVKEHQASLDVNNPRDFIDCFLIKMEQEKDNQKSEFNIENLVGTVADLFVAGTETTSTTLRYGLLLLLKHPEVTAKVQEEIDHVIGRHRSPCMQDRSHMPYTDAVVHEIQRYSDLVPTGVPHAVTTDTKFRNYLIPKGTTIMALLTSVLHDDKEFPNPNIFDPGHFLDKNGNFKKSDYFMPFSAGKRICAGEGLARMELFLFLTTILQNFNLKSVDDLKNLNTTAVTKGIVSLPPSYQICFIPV

M. tuberculosis H37Rv [2] = assay: MIC90 determination, H37Rv; format: cell-based, Mycobacterium tuberculosis
N1283 clinical isolate = format: cell-based, Mycobacterium tuberculosis; conditions: biological replicates
2C19 = molecular target: T3, 2C19 (Homo sapiens, UniProt P33261); format: in vitro ADME
T3 construct: from tissue; host or cells: human liver microsomes
T3 sequence (P33261 whole entry): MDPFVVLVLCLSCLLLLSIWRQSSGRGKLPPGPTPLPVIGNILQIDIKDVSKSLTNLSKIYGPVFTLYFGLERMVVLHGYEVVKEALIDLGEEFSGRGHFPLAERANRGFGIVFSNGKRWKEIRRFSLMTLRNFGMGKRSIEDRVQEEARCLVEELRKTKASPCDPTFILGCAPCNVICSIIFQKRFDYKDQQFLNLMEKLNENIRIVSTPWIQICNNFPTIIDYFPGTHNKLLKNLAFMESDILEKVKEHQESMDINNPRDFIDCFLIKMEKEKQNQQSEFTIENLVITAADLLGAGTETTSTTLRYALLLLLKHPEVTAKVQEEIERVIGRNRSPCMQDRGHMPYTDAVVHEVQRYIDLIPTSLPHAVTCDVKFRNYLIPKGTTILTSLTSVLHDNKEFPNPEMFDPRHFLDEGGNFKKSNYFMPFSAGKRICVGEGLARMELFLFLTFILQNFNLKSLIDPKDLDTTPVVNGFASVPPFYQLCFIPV

[3] = format: in vitro ADME; conditions: hepatocytes
3A4 = molecular target: T4, 3A4 (Homo sapiens, UniProt P08684); format: in vitro ADME
T4 construct: from tissue; host or cells: human liver microsomes
T4 sequence (P08684 whole entry): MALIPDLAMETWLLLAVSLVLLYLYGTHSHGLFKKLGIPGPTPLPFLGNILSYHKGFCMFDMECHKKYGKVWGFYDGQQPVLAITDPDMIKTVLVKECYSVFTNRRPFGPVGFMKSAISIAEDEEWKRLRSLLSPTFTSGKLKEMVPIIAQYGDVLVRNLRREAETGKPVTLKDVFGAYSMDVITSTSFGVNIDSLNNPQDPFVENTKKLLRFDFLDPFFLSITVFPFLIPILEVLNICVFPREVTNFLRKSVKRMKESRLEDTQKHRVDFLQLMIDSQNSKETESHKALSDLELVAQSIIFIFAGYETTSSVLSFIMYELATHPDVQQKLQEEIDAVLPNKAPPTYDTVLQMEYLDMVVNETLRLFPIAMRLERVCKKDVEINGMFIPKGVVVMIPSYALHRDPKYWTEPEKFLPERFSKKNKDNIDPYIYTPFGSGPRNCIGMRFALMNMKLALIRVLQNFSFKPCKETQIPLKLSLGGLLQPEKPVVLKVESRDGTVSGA

H37Rv_CytBd-KO = assay: microbe, parasite or virus in culture; format: cell-based, Mycobacterium tuberculosis; conditions: read-out: MBC99.9 (H37Rv_CytBd-KO)
[4] = format: in vitro ADME
Experimental: (§1) Details of the metabolic stability in liver microsomes and hepatocytes together with CYP inhibition in human liver microsomes and plasma protein binding have been published previously. The CYP induction assay was conducted by Puracyp Inc (www.puracyp.com). Studies were designed to evaluate the effect of compounds on the activation of human PXR (hPXR). The DPX2TM cells harbour the human PXR gene (NR1I2) and a luciferase reporter gene linked to two promoters identified in the human CYP3A4 gene, namely XREM and PXRE. These cells were seeded in a 96-well plate. Twenty-four hours after seeding, the cells were treated with various concentrations of compounds then incubated for an additional 24 h. Following this, the number of viable cells per well were determined using Promega’s CellTiter Fluor Cytotoxicity Assay. Briefly, One-Glo was added to the same wells and reporter gene activity was assessed. The luminescence light intensity was directly proportional to the extent of PXR activation and accompanying gene transcription in the DPX2TM cells.

human PXR (hPXR) = human PXR (hPXR) (Homo sapiens, UniProt O75469); format: in vitro ADME
Sequence of human PXR (hPXR) (O75469 whole entry): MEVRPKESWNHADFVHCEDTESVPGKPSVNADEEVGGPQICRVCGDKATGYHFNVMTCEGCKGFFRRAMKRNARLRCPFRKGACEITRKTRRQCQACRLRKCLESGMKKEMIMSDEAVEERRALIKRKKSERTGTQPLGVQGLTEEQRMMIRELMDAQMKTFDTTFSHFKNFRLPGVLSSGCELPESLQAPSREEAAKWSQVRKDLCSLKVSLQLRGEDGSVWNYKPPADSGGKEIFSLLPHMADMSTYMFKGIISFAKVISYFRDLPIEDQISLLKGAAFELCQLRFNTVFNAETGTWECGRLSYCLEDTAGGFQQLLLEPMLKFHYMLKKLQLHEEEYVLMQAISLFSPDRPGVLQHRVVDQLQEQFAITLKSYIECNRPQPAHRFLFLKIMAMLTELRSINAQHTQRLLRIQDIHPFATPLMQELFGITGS
Experimental: as §1

clinical isolate, N1283 = system: clinical isolate, N1283; set-up: species or system Mycobacterium tuberculosis; conditions: in vivo
H37Rv_CydBd-KO = assay: microbe, parasite or virus in culture; format: cell-based, Mycobacterium tuberculosis
M. tuberculosis H37Rv [5] = assay: MBC99.9 determination, H37Rv; format: cell-based, Mycobacterium tuberculosis
[6] = system: M. tuberculosis clinical isolates; assay: microbe, parasite or virus in culture; format: cell-based, Mycobacterium tuberculosis
[7] = system: Salmonella typhimurium strains TA98 and TAMix
[8] = mouse, in vivo, iv, 1 mg/kg
WT H37Rv = format: cell-based, Mycobacterium tuberculosis; conditions: biological replicates
2C9 = molecular target: T5, 2C9 (Homo sapiens, UniProt P11712); format: in vitro ADME
T5 construct: from tissue; host or cells: human liver microsomes
T5 sequence (P11712 whole entry): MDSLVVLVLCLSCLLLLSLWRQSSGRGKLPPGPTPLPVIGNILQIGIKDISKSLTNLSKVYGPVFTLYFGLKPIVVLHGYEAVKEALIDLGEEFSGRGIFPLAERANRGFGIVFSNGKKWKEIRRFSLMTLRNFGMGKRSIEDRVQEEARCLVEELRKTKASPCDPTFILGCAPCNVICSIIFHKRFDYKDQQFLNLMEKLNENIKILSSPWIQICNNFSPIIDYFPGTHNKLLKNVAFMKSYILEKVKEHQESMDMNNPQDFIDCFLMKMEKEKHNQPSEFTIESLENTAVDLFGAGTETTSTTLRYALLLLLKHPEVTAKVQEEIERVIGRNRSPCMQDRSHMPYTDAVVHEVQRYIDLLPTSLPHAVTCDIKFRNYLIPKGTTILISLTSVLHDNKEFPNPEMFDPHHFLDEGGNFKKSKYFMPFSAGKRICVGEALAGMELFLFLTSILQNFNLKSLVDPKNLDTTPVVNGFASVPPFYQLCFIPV

2D6 = molecular target: T6, 2D6 (Homo sapiens, UniProt P10635); format: in vitro ADME
T6 construct: from tissue; host or cells: human liver microsomes
T6 sequence (P10635 whole entry): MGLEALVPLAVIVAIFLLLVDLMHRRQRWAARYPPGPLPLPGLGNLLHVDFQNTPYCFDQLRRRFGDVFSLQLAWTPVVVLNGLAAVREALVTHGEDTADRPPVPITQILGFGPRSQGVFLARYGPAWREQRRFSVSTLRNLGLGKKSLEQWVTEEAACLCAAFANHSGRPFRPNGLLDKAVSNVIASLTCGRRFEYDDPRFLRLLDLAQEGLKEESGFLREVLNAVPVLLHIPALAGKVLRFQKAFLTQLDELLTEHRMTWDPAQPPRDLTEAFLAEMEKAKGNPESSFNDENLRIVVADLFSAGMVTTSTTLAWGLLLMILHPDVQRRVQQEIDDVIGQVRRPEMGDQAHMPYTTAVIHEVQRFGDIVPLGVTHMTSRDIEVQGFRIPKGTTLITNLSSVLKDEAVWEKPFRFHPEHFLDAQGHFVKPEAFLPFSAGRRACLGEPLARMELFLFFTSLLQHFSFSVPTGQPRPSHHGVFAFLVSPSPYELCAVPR

NNC(=O)c1ccncc1 [Isoniazid, isoniazid]
MIC50 ([1]; Mycobacterium tuberculosis): 510 nM (≈ 69.9 ng/mL)

CCc1nc2ncc(C)cn2c1C(=O)NCc1ccc(N2CCN(S(=O)(=O)C(F)(F)F)C=N2)c(F)c1 [JNJ-4052]
IC50 (1A2): > 20 µM
IC50 (2C8): > 20 µM
MIC90 (M. tuberculosis H37Rv [2]; read-out: MIC90 (H37Rv)): 7 nM (≈ 3.69 ng/mL)
MIC90 (M. tuberculosis H37Rv [2]; strain H37Rv (Institut Pasteur, lineage 4), read-out: MIC90): 6 nM (≈ 3.17 ng/mL)
CFU counts (N1283 clinical isolate; Conc 8 nM): 2200000 CFU and 6000000 CFU and 800000 CFU and 200000 CFU
CFU counts (N1283 clinical isolate; Conc 32 nM): 150000 CFU and 400000 CFU and 80000 CFU and 50000 CFU
CFU counts (N1283 clinical isolate; Conc 128 nM): 170000 CFU and 300000 CFU and 90000 CFU and 80000 CFU
IC50 (2C19): > 20 µM
Mouse Hep Clint [3]: 12 µL min-1 106 cells-1
IC50 (3A4): > 20 µM
MBC (H37Rv_CytBd-KO): 300 nM (≈ 158 ng/mL)
IC20 (HepG2 cells): 98.8 µM
Plasma protein binding, Rat (% free) [4]: 2.67 % free
Dog Hep Clint ([4]; hepatocytes): 4.7 µL min-1 106 cells-1
Human Hep Clint ([4]; hepatocytes): 6.7 µL min-1 106 cells-1
Rat Hep Clint ([4]; hepatocytes): 19 µL min-1 106 cells-1
Dog LM Clint ([4]; microsomes): < 7.7 µL min-1 mg protein-1
Human LM Clint ([4]; microsomes): 20.4 µL min-1 mg protein-1
Mouse LM Clint ([4]; microsomes): 42 µL min-1 mg protein-1
Rat LM Clint ([4]; microsomes): 16.7 µL min-1 mg protein-1
Cyp3A4 ind. (%ctrl) (human PXR (hPXR); 1 µM): 3.0 %ctrl
Cyp3A4 ind. (%ctrl) (human PXR (hPXR); 10 µM): 21.2 %ctrl
CFU reduction (clinical isolate, N1283): 1.6 log10
MIC90 (H37Rv_CydBd-KO): 7 nM (≈ 3.69 ng/mL)
MBC (M. tuberculosis H37Rv [5]): > 1250 nM
MIC90 ([6]; strain Mtb-0617 (Karonga, lineage 3)): 1.3 nM (≈ 0.686 ng/mL)
MIC90 ([6]; strain Mtb-2703 (Karonga, lineage 3)): 0.13 nM (≈ 0.0686 ng/mL)
MIC90 ([6]; strain Mtb-4779 (Karonga, lineage 2)): 0.29 nM (≈ 0.153 ng/mL)
MIC90 ([6]; strain Mtb-4980 (Karonga, lineage 4)): 0.7 nM (≈ 0.369 ng/mL)
MIC90 ([6]; strain Mtb-6787 (Karonga, lineage 4)): 0.71 nM (≈ 0.375 ng/mL)
MIC90 ([6]; strain Mtb-7489 (Karonga, lineage 1)): 2.5 nM (≈ 1.32 ng/mL)
MIC90 ([6]; strain Mtb-7496 (Karonga, lineage 3)): 0.29 nM (≈ 0.153 ng/mL)
MIC90 ([6]; strain Mtb-9271 (Karonga, lineage 4)): 0.2 nM (≈ 0.106 ng/mL)
MIC90 ([6]; strain Mtb-61164 (Karonga, lineage 2)): 0.79 nM (≈ 0.417 ng/mL)
MIC90 ([6]; strain N0054 (Gagneux, lineage 3)): 0.85 nM (≈ 0.448 ng/mL)
MIC90 ([6]; strain N0072 (Gagneux, lineage 1)): 1.2 nM (≈ 0.633 ng/mL)
MIC90 ([6]; strain N1283 (Gagneux, lineage 4)): 0.73 nM (≈ 0.385 ng/mL)
Mutagenicity (AMES II) [7]: negative
CLp as % LBF [8]: ~ 11 % LBF
MIC50 ([1]; Parent (ΔcydAB)): 10 nM (≈ 5.28 ng/mL)
CFU counts (WT H37Rv; Conc 8 nM): 50000000 CFU and 20000000 CFU and 53000000 CFU and 30000000 CFU
CFU counts (WT H37Rv; Conc 32 nM): 17000000 CFU and 12000000 CFU
CFU counts (WT H37Rv; Conc 128 nM): 26000000 CFU and 17000000 CFU
IC50 (2C9): > 20 µM
IC50 (2D6): > 20 µM
